Where “and” joins values, the source holds several entries; their conditions need not be identical. Equal entries are not always repeated.
Key:
MAPK14 (human) = MAPK14 (human) (UniProt Q16539); assay: TNF-alpha Inhibition; settings: thp1
MAPK14 (rat) = assay: Pharmacokinetic Studies
MAPK14 (Lewis rat) = assay: p38 Inhibition (SCW-Induced Arthritis Model)
MAPK14 (mouse) = assay: p38 Inhibition
MAPK14 (Balb/c mice) = assay: TNF-alpha Inhibition (in vivo)

Sequence of MAPK14 (human) (Q16539 whole entry, looked up): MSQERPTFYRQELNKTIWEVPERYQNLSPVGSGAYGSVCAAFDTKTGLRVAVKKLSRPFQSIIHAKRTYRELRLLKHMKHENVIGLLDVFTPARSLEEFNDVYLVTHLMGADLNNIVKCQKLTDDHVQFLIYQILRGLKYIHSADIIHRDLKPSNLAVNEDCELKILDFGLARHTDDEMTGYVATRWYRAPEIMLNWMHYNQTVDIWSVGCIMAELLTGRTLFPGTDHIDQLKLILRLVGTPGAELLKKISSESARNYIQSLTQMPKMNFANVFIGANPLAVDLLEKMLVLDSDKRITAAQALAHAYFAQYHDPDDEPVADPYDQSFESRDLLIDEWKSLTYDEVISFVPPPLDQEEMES

Row | Structure (SMILES) | IC50 (MAPK14 (human)) | AUC (MAPK14 (rat)) | other results
1 | C[C@]1(C(=O)NC2CC2)CO[C@H](c2nc(-c3ccc(F)cc3)c(-c3ccnc(NCC4CC4)n3)[nH]2)OC1 |  | 288 ng·h/mL | 
2 | COCCCNc1nccc(-c2[nH]c([C@H]3OC[C@@](C)(C(=O)NCCOC)CO3)nc2-c2ccc(F)cc2)n1 | 71 nM | 138 ng·h/mL | 
3 | COCCNc1nccc(-c2[nH]c([C@H]3OC[C@@](C)(C(=O)NCC4CC4)CO3)nc2-c2ccc(F)cc2)n1 |  | 121 ng·h/mL | 
4 | CC(C)NC(=O)[C@]1(C)CO[C@@H](c2nc(-c3ccc(F)cc3)c(-c3ccnc(NCC4CC4)n3)[nH]2)OC1 |  | 412 ng·h/mL | 
5 | C[C@@H]1C[C@H]2[C@@H]3CCC4=CC(=O)C=C[C@]4(C)[C@@]3(F)[C@@H](O)C[C@]2(C)[C@@]1(O)C(=O)CO |  |  | score (MAPK14 (Lewis rat)): 22.5
6 | C[C@]1(C(=O)N2CCOCC2)CO[C@H](c2nc(-c3ccc(F)cc3)c(-c3ccncc3)[nH]2)OC1 | 60 nM | 247 ng·h/mL and 628 ng·h/mL | IC50 (MAPK14 (mouse)): 110000 nM; Cp (MAPK14 (rat)): 277 ng/mL; ED50 (MAPK14 (Balb/c mice)): Between 3 to 10 mg kg-1
7 | CCCNC(=O)[C@]1(C)CO[C@@H](c2nc(-c3ccc(F)cc3)c(-c3ccnc(NCCCOC)n3)[nH]2)OC1 | 3.5 nM | 738 ng·h/mL | 
8 | CN(C)C(=O)[C@]1(C)CO[C@@H](c2nc(-c3ccc(F)cc3)c(-c3ccnc(NCc4ccccn4)n3)[nH]2)OC1 | 9 nM | 529 ng·h/mL | 

Now from value to compound, other results behind:

Row | IC50 (MAPK14 (human)) | Structure (SMILES) | AUC (MAPK14 (rat)) | other results
9 | 2 nM | CN1CCN(C(=O)[C@]2(C)CO[C@@H](c3nc(-c4ccc(F)cc4)c(-c4ccnc(NCC5CC5)n4)[nH]3)OC2)CC1 | 541 ng·h/mL | bioavailability (MAPK14 (rat); dose or concentration not given here): 20%; score (MAPK14 (Lewis rat)): 40 and 34 and 25
10 | 0.2 nM | CN(C)C(=O)[C@]1(C)CO[C@@H](c2nc(-c3ccc(F)cc3)c(-c3ccnc(NCC4CC4)n3)[nH]2)OC1 | 276 ng·h/mL | 
11 | 3 nM | CCCNC(=O)[C@]1(C)CO[C@@H](c2nc(-c3ccc(F)cc3)c(-c3ccnc(NCc4ccco4)n3)[nH]2)OC1 | 257 ng·h/mL | 
12 | 73 nM | C=CCNc1nccc(-c2[nH]c([C@H]3OC[C@@](C)(C(=O)NCCOC)CO3)nc2-c2ccc(F)cc2)n1 | 169 ng·h/mL | 
